Structures can show the parent of a compound that is named as a salt.
Target: T1, chimeric receptor containing the EGFR extracellular domain and intracellular HER2 kinase domain (Homo sapiens, UniProt P04626)
T1 construct: fused on or other part: EGFR ectodomain + HER2 intracellular part, ATP-site indolinones: HER2's kinase
Assay: EGF Receptor-HER2 chimeric receptor assay in whole cells (ELISA)
Assay type: cell-based
Conditions: read-out: HER-2 kinase IC50
Procedure, shortened: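 NIH3T3 cells overexpressing EGFR-extracellular/HER2-kinase chimera, seeded in 0.5% serum for ~40 h, were pretreated with compound (1% final DMSO) 2 h at 37 °C, then stimulated with 100 nM EGF for 5 min. Lysates captured on anti-EGFR plates; phosphotyrosine detected by anti-Ptyr/HRP ELISA at 410 nm as percent inhibition.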

T1 sequence (P04626 720-1255 limits assumed, change not shown): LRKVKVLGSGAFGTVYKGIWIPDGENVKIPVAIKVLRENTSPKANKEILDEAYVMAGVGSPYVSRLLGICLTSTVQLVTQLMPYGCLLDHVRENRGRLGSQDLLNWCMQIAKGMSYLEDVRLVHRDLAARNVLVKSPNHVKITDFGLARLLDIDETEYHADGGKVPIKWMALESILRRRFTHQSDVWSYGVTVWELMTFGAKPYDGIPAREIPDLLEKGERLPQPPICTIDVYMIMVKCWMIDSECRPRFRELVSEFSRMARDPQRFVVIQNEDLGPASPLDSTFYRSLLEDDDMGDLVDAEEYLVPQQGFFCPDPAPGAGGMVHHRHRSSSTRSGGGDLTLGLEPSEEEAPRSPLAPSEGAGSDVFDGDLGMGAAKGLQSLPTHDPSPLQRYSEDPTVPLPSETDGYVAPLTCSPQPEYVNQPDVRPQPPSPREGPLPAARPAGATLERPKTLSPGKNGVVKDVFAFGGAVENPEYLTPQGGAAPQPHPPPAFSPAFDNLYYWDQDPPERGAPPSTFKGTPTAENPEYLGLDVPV

Structure (SMILES) | IC50 [µM]
Cc1cc(CCC(=O)O)c(/C=C2\C(=O)Nc3ccc(Cl)cc32)[nH]1 [Example 111, 3-[2-(5-Chloro-2-oxo-1,2-dihydroindol-3-ylidenemethyl)-5-methyl-1H-pyrrol-3-yl]propionic acid] | > 100
Cc1c(/C=C2\C(=O)Nc3ccc(C(=O)O)cc32)[nH]c2ccccc12 [Example 156, 3-(3-Methyl-1H-indol-2-ylmethylene)-2-oxo-2,3-dihydro-1H-indole-5-carboxylic acid (piperidine salt)] | > 100
O=C1Nc2ccc(Br)cc2/C1=C/c1cc2ccccc2[nH]1 [Example 165, 5-Bromo-3-(1H-indol-2-ylmethylene)-1,3-dihydro-indol-2-one] | > 100
Cc1cccc2c1/C(=C/c1cc3ccccc3[nH]1)C(=O)N2 [Example 166, 3-(1H-indol-2-ylmethylene)-4-methyl-1,3-dihydro-indol-2-one] | > 100

Further lines, results first:

IC50 [µM] | Structure (SMILES)
> 100 | COc1ccccc1-c1ccc2c(c1)NC(=O)/C2=C\c1[nH]c(C)cc1CCC(=O)O [Example 109, 3-{2-[6-(2-Methoxyphenyl)-2-oxo-1,2-dihydroindol-3-ylidenemethyl]-5-methyl-1H-pyrrol-3-yl}-propionic acid]
> 100 | CCOC(=O)c1c(C)[nH]c(/C=C2\C(=O)Nc3cc(-c4ccccc4OC)ccc32)c1CCC(=O)O [Example 110, 4-(2-Carboxyethyl)-5-[6-(2-methoxyphenyl)-2-oxo-1,2-dihydro-indol-3-ylidenemethyl]-2-methyl-1H-pyrrol-3-yl-carboxylic acid ethyl ester]

From patent publication US6855730B2, “3-methylidenyl-2-indolinone modulators of protein kinase” (Sugen, Inc., priority 1998, dated 2005)
